Experimental data: PubChem BioAssay (NCI)
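GI50: concentration for 50% inhibition of growth. Definition used: TGI = concentration required for complete inhibition of growth.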

Assays:
Assay in all cases: growth of human tumour cells (NCI), 384-well format
MDA-MB-435 melanoma = system: MDA-MB-435 melanoma
MDA-MB-468 breast = system: MDA-MB-468 breast
T-47D breast = system: T-47D breast
UO-31 renal = system: UO-31 renal
TK-10 renal = system: TK-10 renal
U251 glioblastoma = system: U251 glioblastoma
786-0 renal = system: 786-0 renal
KM12 colon = system: KM12 colon
HCT-15 colon = system: HCT-15 colon
NCI-H322M lung = system: NCI-H322M lung
A498 renal = system: A498 renal
SR leukemia = system: SR leukemia
OVCAR-3 ovarian = system: OVCAR-3 ovarian
HL-60(TB) leukemia = system: HL-60(TB) leukemia
CAKI-1 renal = system: CAKI-1 renal
DU-145 prostate = system: DU-145 prostate
HCC-2998 colon = system: HCC-2998 colon
K-562 leukemia = system: K-562 leukemia
NCI-H460 NSCLC = system: NCI-H460 NSCLC
SW-620 colon = system: SW-620 colon
NCI/ADR-RES ovarian = system: NCI/ADR-RES ovarian
SK-OV-3 ovarian = system: SK-OV-3 ovarian
BT-549 breast = system: BT-549 breast
OVCAR-4 ovarian = system: OVCAR-4 ovarian
CCRF-CEM leukemia = system: CCRF-CEM leukemia
MALME-3M melanoma = system: MALME-3M melanoma
PC-3 prostate = system: PC-3 prostate
RPMI-8226 leukemia = system: RPMI-8226 leukemia
UACC-257 melanoma = system: UACC-257 melanoma
SK-MEL-28 melanoma = system: SK-MEL-28 melanoma
SF-268 CNS = system: SF-268 CNS
SF-295 CNS = system: SF-295 CNS
IGROV1 ovarian = system: IGROV1 ovarian
A549 NSCLC = system: A549 NSCLC
SN12C renal = system: SN12C renal
SF-539 CNS = system: SF-539 CNS
ACHN renal = system: ACHN renal
HS 578T breast = system: HS 578T breast
SNB-19 CNS = system: SNB-19 CNS
HOP-92 NSCLC = system: HOP-92 NSCLC
OVCAR-8 ovarian = system: OVCAR-8 ovarian
EKVX NSCLC = system: EKVX NSCLC
NCI-H23 lung = system: NCI-H23 lung
OVCAR-5 ovarian = system: OVCAR-5 ovarian
SK-MEL-5 melanoma = system: SK-MEL-5 melanoma
NCI-H522 lung = system: NCI-H522 lung
SNB-75 CNS = system: SNB-75 CNS
NCI-H226 lung = system: NCI-H226 lung
HOP-62 NSCLC = system: HOP-62 NSCLC
LOX IMVI melanoma = system: LOX IMVI melanoma
HCT-116 colon = system: HCT-116 colon
RXF 393 renal = system: RXF 393 renal
HT29 colon = system: HT29 colon
M14 melanoma = system: M14 melanoma
MDA-MB-231 breast = system: MDA-MB-231 breast
MOLT-4 leukemia = system: MOLT-4 leukemia

Nc1cc(C(F)(F)F)c(-c2cc(N3CCOCC3)nc(N3CCOCC3)n2)cn1
GI50 (MDA-MB-435 melanoma): 223 nM | TGI (MDA-MB-435 melanoma): 449 nM | GI50 (MDA-MB-468 breast): 230 nM | TGI (MDA-MB-468 breast): 618 nM | GI50 (T-47D breast): 231 nM | TGI (T-47D breast): 776 nM | GI50 (UO-31 renal): 340 nM | TGI (UO-31 renal): 3070 nM | GI50 (TK-10 renal): 572 nM | TGI (TK-10 renal): 2730 nM | GI50 (U251 glioblastoma): 1770 nM | TGI (U251 glioblastoma): 4370 nM | GI50 ([…]-0 renal): 1970 nM | TGI (786-0 renal): 7000 nM | GI50 (KM12 colon): 894 nM | TGI (KM12 colon): 20200 nM | GI50 (HCT-15 colon): 394 nM | TGI (HCT-15 colon): 4110 nM | GI50 (NCI-H322M lung): 1620 nM | TGI (NCI-H322M lung): 7010 nM | GI50 (A498 renal): 387 nM | TGI (A498 renal): 1870 nM | GI50 (SR leukemia): 45.9 nM | TGI (SR leukemia): 160 nM | GI50 (OVCAR-3 ovarian): 546 nM | TGI (OVCAR-3 ovarian): 2460 nM | GI50 (HL-60(TB) leukemia): 280 nM | TGI (HL-60(TB) leukemia): 1300 nM | GI50 (CAKI-1 renal): 230 nM | TGI (CAKI-1 renal): 804 nM | GI50 (DU-145 prostate): 1990 nM | TGI (DU-145 prostate): 13900 nM | GI50 (HCC-2998 colon): 1080 nM | TGI (HCC-2998 colon): 3370 nM | GI50 (K-562 leukemia): 459 nM | TGI (K-562 leukemia): 1830 nM | GI50 (NCI-H460 NSCLC): 419 nM | TGI (NCI-H460 NSCLC): 1670 nM | GI50 (SW-620 colon): 358 nM | TGI (SW-620 colon): > 100000 nM | GI50 (NCI/ADR-RES ovarian): 265 nM | TGI (NCI/ADR-RES ovarian): 1670 nM | GI50 (SK-OV-3 ovarian): 560 nM | TGI (SK-OV-3 ovarian): 2550 nM | GI50 (BT-549 breast): 691 nM | TGI (BT-549 breast): 4610 nM | GI50 (OVCAR-4 ovarian): 1260 nM | TGI (OVCAR-4 ovarian): 6660 nM | GI50 (CCRF-CEM leukemia): 589 nM | TGI (CCRF-CEM leukemia): 1880 nM | GI50 (MALME-3M melanoma): 272 nM | TGI (MALME-3M melanoma): 838 nM | GI50 (PC-3 prostate): 462 nM | TGI (PC-3 prostate): 6930 nM | GI50 (RPMI-8226 leukemia): 185 nM | TGI (RPMI-8226 leukemia): 385 nM | GI50 (UACC-257 melanoma): 930 nM | TGI (UACC-257 melanoma): 7270 nM | GI50 (SK-MEL-28 melanoma): 485 nM | TGI (SK-MEL-28 melanoma): 3340 nM | GI50 (SF-268 CNS): 384 nM | TGI (SF-268 CNS): 4570 nM | GI50 (SF-295 CNS): 361 nM | TGI (SF-295 CNS): 1540 nM | GI50 (IGROV1 ovarian): 209 nM | TGI (IGROV1 ovarian): 572 nM | GI50 (A549 NSCLC): 360 nM | TGI (A549 NSCLC): 12400 nM | GI50 (SN12C renal): 1220 nM | TGI (SN12C renal): 7120 nM | GI50 (SF-539 CNS): 1210 nM | TGI (SF-539 CNS): 2910 nM | GI50 (ACHN renal): 246 nM | TGI (ACHN renal): 10000 nM | GI50 (HS 578T breast): 443 nM | TGI (HS 578T breast): 1750 nM | GI50 (SNB-19 CNS): 2030 nM | TGI (SNB-19 CNS): 7760 nM | GI50 (HOP-92 NSCLC): 562 nM | TGI (HOP-92 NSCLC): 4000 nM | GI50 (OVCAR-8 ovarian): 460 nM | TGI (OVCAR-8 ovarian): 14000 nM | GI50 (EKVX NSCLC): 793 nM | TGI (EKVX NSCLC): 6280 nM | GI50 (NCI-H23 lung): 310 nM | TGI (NCI-H23 lung): 2260 nM | GI50 (OVCAR-5 ovarian): 687 nM | TGI (OVCAR-5 ovarian): > 100000 nM | GI50 (SK-MEL-5 melanoma): 235 nM | TGI (SK-MEL-5 melanoma): 762 nM | GI50 (NCI-H522 lung): 341 nM | TGI (NCI-H522 lung): 1300 nM | GI50 (SNB-75 CNS): 287 nM | TGI (SNB-75 CNS): 1190 nM | GI50 (NCI-H226 lung): 574 nM | TGI (NCI-H226 lung): 4130 nM | GI50 (HOP-62 NSCLC): 264 nM | TGI (HOP-62 NSCLC): 2730 nM | GI50 (LOX IMVI melanoma): 1180 nM | TGI (LOX IMVI melanoma): 10700 nM | GI50 (HCT-116 colon): 852 nM | TGI (HCT-116 colon): 7530 nM | GI50 (RXF 393 renal): 285 nM | TGI (RXF 393 renal): 1300 nM | GI50 (HT29 colon): 715 nM | TGI (HT29 colon): > 100000 nM | GI50 (M14 melanoma): 416 nM | TGI (M14 melanoma): 8850 nM | GI50 (MDA-MB-231 breast): 819 nM | TGI (MDA-MB-231 breast): 44900 nM | GI50 (MOLT-4 leukemia): 333 nM | TGI (MOLT-4 leukemia): 1330 nM
